# Laboratory results taken from patent US20240409536A1, “COMPOUNDS AND METHODS FOR MODULATING SPLICING” (REMIX THERAPEUTICS INC., priority 2021, published 2024).
# Assays:
# [1] = system: MYB mRNA; assay: Gene panel canonical junction qPCR assay, MYB CJ mRNA decrease; format: cell-based, human; details: Homo sapiens, canonical junction qPCR, read-out: MYB IC50 (decrease in CJ mRNA levels)
# In short: (§1)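 A673 or K562 cells treated with compound; canonical exon-exon junction mRNA quantified by cDNA synthesis and RT-qPCR with junction-spanning primer/probe, normalized to GAPDH, GUSB or PPIA and DMSO (2^(−ΔΔCt)). Percent response from set ΔCt assay windows fitted to 4-parameter logistic; IC50 for CJ decrease.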
# [2] = system: SMN2 mRNA; assay: Gene panel canonical junction qPCR assay, SMN2 CJ mRNA decrease; format: cell-based, human; details: Homo sapiens, canonical junction qPCR, read-out: SMN2 IC50 (decrease in CJ mRNA levels)
# In short: as §1
# [3] = system: Target C mRNA; assay: Gene panel canonical junction qPCR assay, Target C CJ mRNA decrease; format: cell-based; details: Homo sapiens, canonical junction qPCR, read-out: Target C IC50 (decrease in CJ mRNA levels)
# In short: as §1
# [4] = system: K562 cells; assay: Cell Titer Glo 2.0 cell viability assay in K562 cells; details: 72 hours
# [5] = system: HiBiT-tagged HTT protein; assay: HiBiT protein abundance assay, HTT (K562 HiBiT knock-in cells); format: cell-based, human; details: 24 hours
# Experimental: (§2) Compounds described herein were used to screen for effects on quantitative protein abundance using a HiBit assay system (Promega). Quantitative protein abundance was determined by measuring the protein levels of HiBit-tagged protein targets expressed in cell culture via luminescence using the Nano-Glo HiBiT Lytic Detection System, which uses a split complementation assay format to reconstitute NanoBiT enzyme to generate a luminescent signal. A protein abundance assay was developed such that endogenous protein targets could be modified with the HiBiT peptide tag and their abundance could be assessed after compound treatment. Briefly, K562 cell lines containing a HiBiT-modification were treated with various compounds described herein (e.g., compounds of Formulas (I), (II), or (III)). After treatment for 24 hours, the protein abundance of a specific target was determined by measuring luminescence.
# (§3) • Promega Nano-Glo HiBiT Lytic Detection System (cat #N3030) • Corning 384-well TC-treated microplates (cat #3570) • Synthego Engineered Cells Knock-In Clones
# (§4) Cells were maintained in IMDM with 10% FBS. Before the assay, cells were diluted with […] growth media (IMDM+1% FBS media) and were seeded in a 384-well plate at a density of 10000 cells/well (for each cell line listed in Table 6). Each compound was prepared as a 10-point 3-fold serial dilution in DMSO with the top dose at a final concentration of 10 μM in the well. Unmodified K562 cells were added at the previously specified density with DMSO to serve as an assay baseline and positive control (PC) and DMSO only with the respective modified cell lines was added to the negative control (NC) columns. Final DMSO concentration was kept at or below 0.25%. Treated cell plates were placed in an incubator at 37° C. with 5% CO2 for 24 hours. After 24 hours, 25 μL of Complete HiBit Lytic reagent was added to each well at room temperature (e.g. one plate requiring 10 mL Lytic Buffer, 100 μL LgBiT Protein, 200 μL Lytic Substrate), shaken for 5 minutes at 600 RPM, then left to sit for 10 minutes for signal to stabilize before reading on a Spark Cyto plate reader (Tecan) with a 500 ms measurement time.
# (§5) To determine compound effects on protein abundance of each target in Table 6, the percent response for each respective cell line was calculated at each compound concentration as follows:
# (§6) For the normalized response at each concentration, a four-parameter logistical regression was fit to the data and the response was interpolated at the 50% value to determine a concentration for protein abundance at 50% (IC50) the untreated control.
# [6] = system: HiBiT-tagged MYB protein; assay: HiBiT protein abundance assay, MYB (K562 HiBiT knock-in cells); format: cell-based, human; details: 24 hours
# Experimental: as §2, §3, §4, §5, §6
# [7] = system: HTT mRNA; assay: Gene panel canonical junction qPCR assay, HTT CJ mRNA decrease; format: cell-based, human; details: Homo sapiens, canonical junction qPCR, read-out: HTT IC50 (decrease in CJ mRNA levels)
# In short: as §1
Structure (SMILES),IC50 [1],IC50 [2],IC50 [3],Viability [4],IC50 [5],IC50 [6],IC50 [7]
"Cc1cn2cc(NC(=O)c3ccc([C@@]45CCNCC4C5)c4nccnc34)cc(F)c2n1 (stereo in doubt) [Compound 248, 8-{3-azabicyclo[4.1.0]heptan-6-yl}-N-{8-fluoro-2-methylimidazo[1,2-a]pyridin-6-yl}quinoxaline-5-carboxamide 2,2,2-trifluoroacetate]",100 to 1000 nM,< 100 nM,1 to 10 µM,B (B represents 100-1000 nM),1000 to 10000 nM,100 to 1000 nM,1000 to 10000 nM
Cc1cn2cc(NC(=O)c3ccc(N4CCNCC4)c4nccnc34)cc(F)c2n1 [Compound 111],100 to 1000 nM,< 100 nM,1 to 10 µM,B (B represents 100-1000 nM),100 to 1000 nM,< 100 nM,1000 to 10000 nM
Cc1cn2nc(NC(=O)c3ccc(C4CCNCC4)c4ccnnc34)cc(C)c2n1 [Compound 113],1000 to 10000 nM,100 to 1000 nM,1 to 10 µM,,1000 to 10000 nM,1000 to 10000 nM,1000 to 10000 nM
Cn1cc2ccc(NC(=O)c3ccc(N4CCNCC4)c4ccnnc34)cc2n1 [Compound 115],> 10000 nM,> 10000 nM,> 10 µM,D (D represents greater than 10 μM in K562 cells),> 10000 nM,> 10000 nM,> 10000 nM
Cn1cc2c(F)cc(NC(=O)c3ccc(N4CCNCC4)c4ccnnc34)cc2n1 [Compound 116],> 10000 nM,> 10000 nM,> 10 µM,C (C represents 1000-9999 nM),> 10000 nM,> 10000 nM,> 10000 nM
Cc1nc2c(F)cc(NC(=O)c3ccc(N4CCNCC4)c4ccnnc34)cc2s1 [Compound 118],100 to 1000 nM,< 100 nM,0.1 to 1 µM,A (A represents <100 nM),100 to 1000 nM,< 100 nM,100 to 1000 nM
Cc1cn2cc(NC(=O)c3ccc(N4CCNCC4)c4ccnnc34)c(C)cc2n1 [Compound 119],1000 to 10000 nM,< 100 nM,1 to 10 µM,B (B represents 100-1000 nM),1000 to 10000 nM,100 to 1000 nM,1000 to 10000 nM
Cc1cn2cc(NC(=O)c3ccc(N4CCNCC4)c4ccnnc34)ncc2n1 [Compound 120],100 to 1000 nM,< 100 nM,> 10 µM,C (C represents 1000-9999 nM),> 10000 nM,100 to 1000 nM,> 10000 nM
CNC1CCN(c2ccc(C(=O)Nc3cc(F)c4nc(C)cn4c3)c3nc(OCCOC)ccc23)C1 (stereo not drawn) [Compound 234],100 to 1000 nM,< 100 nM,1 to 10 µM,B (B represents 100-1000 nM),1000 to 10000 nM,< 100 nM,1000 to 10000 nM
"CN[C@@H]1CCN(c2ccc(C(=O)Nc3cc(F)c4nc(C)cn4c3)c3nnccc23)C1 [Compound 238, (R)—N-(8-fluoro-2-methylimidazo[1,2-a]pyridin-6-yl)-5-(3-(methylamino)pyrrolidin-1-yl)cinnoline-8-carboxamide]",< 100 nM,< 100 nM,1 to 10 µM,B (B represents 100-1000 nM),100 to 1000 nM,< 100 nM,1000 to 10000 nM
"Cc1cn2cc(NC(=O)c3ccc(C4=CCNCC4)c4nccnc34)cc(F)c2n1 [Compound 240, N-{8-fluoro-2-methylimidazo[1,2-a]pyridin-6-yl}-8-(1,2,3,6-tetrahydropyridin-4-yl)quinoxaline-5-carboxamide]",< 100 nM,< 100 nM,0.1 to 1 µM,,< 100 nM,< 100 nM,< 100 nM
"Cc1cn2cc(NC(=O)c3ccc(N4C5CNCC54)c4nccnc34)cc(F)c2n1 (stereo not drawn) [Compound 262, 8-{3,6-diazabicyclo[3.1.0]hexan-6-yl}-N-{8-fluoro-2-methylimidazo[1,2-a]pyridin-6-yl}quinoxaline-5-carboxamide]",100 to 1000 nM,< 100 nM,0.1 to 1 µM,,100 to 1000 nM,100 to 1000 nM,100 to 1000 nM
Cc1cn2cc(NC(=O)c3ccc(N4C[C@@H](C)N[C@@H](C)C4)c4ncc(O)nc34)cc(F)c2n1 [Compound 275],> 10000 nM,> 10000 nM,> 10 µM,,> 10000 nM,> 10000 nM,> 10000 nM
Cc1cn2cc(NC(=O)c3ccc(N4C[C@@H](C)N[C@@H](C)C4)c4nccnc34)nc(Cl)c2n1 [Compound 279],< 100 nM,< 100 nM,> 10 µM,,1000 to 10000 nM,< 100 nM,> 10000 nM
COc1ncc2c(N3C[C@@H](C)N[C@@H](C)C3)ccc(C(=O)Nc3cc(F)c4nc(C)cn4c3)c2n1 [Compound 300],< 100 nM,< 100 nM,0.1 to 1 µM,,100 to 1000 nM,< 100 nM,100 to 1000 nM
Cc1cn2cc(NC(=O)c3ccc(N4C[C@@H](C)N[C@H](C)C4)c4nccnc34)cc(F)c2n1 [Compound 312],< 100 nM,< 100 nM,> 10 µM,,1000 to 10000 nM,< 100 nM,1000 to 10000 nM
Cc1cn2cc(NC(=O)c3ccc(N4C[C@H](C)N[C@@H](C)C4)c4nccnc34)cc(F)c2n1 [Compound 313],< 100 nM,< 100 nM,1 to 10 µM,,100 to 1000 nM,< 100 nM,1000 to 10000 nM
C[C@@H]1CN(c2ccc(C(=O)Nc3cc(F)c4nn(C)cc4c3)c3nccnc23)C[C@@H](C)N1 [Compound 335],100 to 1000 nM,< 100 nM,> 10 µM,,1000 to 10000 nM,100 to 1000 nM,1000 to 10000 nM
Cc1cn2cc(NC(=O)c3ccc(N4C[C@@H](C)N(O)[C@@H](C)C4)c4nccnc34)cc(F)c2n1 [Compound 355],100 to 1000 nM,< 100 nM,> 10 µM,,1000 to 10000 nM,100 to 1000 nM,> 10000 nM
